Experimental data as given in patent publication US20090082322A1, “Gender Differences in Experimental Aortic Aneurysm Formation” (THE REGENTS OF THE UNIVERSITY OF MICHIGAN, priority 2004, published 2009).

Experiments:
MMP-2 [1] = assay: MMP-2 activity in conditioned media of IL-1β stimulated male RASMCs; format: cell-based, rat; conditions: 1×10^−10 to 1×10^−6 molar, with IL-1β
Procedure: Experiment I: Adult male and female rat aortic smooth muscle cells (RASMCs) were grown in Dulbecco's modified Eagle medium (DMEM) with 10% fetal bovine serum (FBS). RASMCs at passages four through eight were stimulated in serum-free media for 48 hours with IL-1β at doses encountered in human aortic aneurysms (2 ng/mL). The culture media was collected, and mRNA was extracted from the RASMCs. After reverse transcription to cDNA, gene expression of MMP-2 and TIMP-2 (a major MMP-2 inhibitor) was measured by real-time polymerase chain reaction. MMP-2 protein levels in conditioned media were measured by Western blotting, with MMP-2 and TIMP-2 activity quantified by standard and reverse gelatin zymography. Experiment II: Male RASMCs were incubated in DMEM containing 17-β-estradiol and IL-1β, MMP-2 activity in the conditioned media was then determined.

[2] = tested on: ED-1-positive macrophages / elastin in aortic wall; assay: Histology and ED-1 macrophage immunohistochemistry of elastase-perfused aortas; format: in vivo, Sprague-Dawley rats
Source text: In other experiments, male rats were randomized to implantation of an estrogen pellet or sham implantation (n=13, each). The former involved the subcutaneous implantation of a 21-day slow-release 0.1-mg 17-β-estradiol pellet (Innovative Research of America, Sarasota, Fla.) in the posterior neck. Sham rats underwent the same implantation procedure without insertion of any pellet. This particular estradiol dose results in serum estradiol levels at 2 to 3 weeks of 44.7±6.1 pg/mL compared with 15.0±2.2 pg/mL in control rats (P<0.05). Rat aortas from both groups were subjected to elastase perfusion 5 days later. The aortas were then removed for study 7 or 14 days after elastase perfusion. All excised aortas were fixed in 10% formalin for 18 hours, followed by immersion in 70% ethanol for 24 hours. Aortas were then imbedded in paraffin and 4-μm sections were prepared with hematoxylin and eosin and Verhoeff-Van Gieson stains. Immunohistochemistry was undertaken after deparaffinization, rehydration, and unmasking using Trilogy (Cell Marque Corp, Hot Springs, Ariz.) in a Princess model pressure cooker (Cell Marque). Endogenous peroxidase activity was then blocked using 3% hydrogen peroxide in methanol. To help ensure that rejection was not occurring in elastase-perfused or transplanted animals, anti-T lymphocyte immunohistochemistry was performed. […]

MMP-2 [3] = assay: MMP-2 activity in media of IL-1β stimulated aortic explants from pre-treated male rats; format: in vivo, rat
Procedure: Experiment III: Male rats underwent sustained 17-β-estradiol exposure using extended-release, subcutaneously implanted pellets prior to sacrifice and aortic explanation. The explants were stimulated with IL-1β, and MMP-2 activity in the conditioned media was then determined.

MMP-9 = MMP-9 activity (gelatin zymography) in media of IL-1β stimulated male RASMCs; format: cell-based, Sprague-Dawley rats; conditions: 10^−10 to 10^−6 mol/L, 48 hours with concurrent IL-1β stimulation
Procedure: Experimental interventions were carried out with confluent RASMCs at passages 3 through 8 in serum-free DMEM supplemented with antibiotics. Confluent monolayers of RASMCs were incubated in T-75 plates with IL-1β (2 ng/mL, from Sigma) for 72 hours. This concentration of IL-1β is found in human aortic aneurysms. After 72 hours of IL-1β stimulation, the RASMC-conditioned medium was collected for measurements of TIMP-1 activity, MMP-9 activity, and MMP-9 protein levels. The remaining SMCs were lysed in 1% sodium dodecyl sulfate (SDS), and total cellular protein was determined by a bicinchoninic acid protein assay (Pierce). In separate experiments, the previous protocol was followed, but male RASMCs were incubated with 5 different concentrations of 17-β-estradiol (1×10^−10 to 1×10^−6 mol/L) for 48 hours with concurrent IL-1β stimulation. Zymography supplies were purchased from Novex. MMP distribution after treatment of RASMC with IL-1β and increasing concentrations of 17-β-estradiol was determined. Gelatin substrate zymograms were prepared using precast 10% SDS-polyacrylamide gels containing 1 mg/mL of gelatin. Equal volumes of experimental media samples were diluted into 2× tris-glycine SDS sample buffer and electrophoretically separated under nonreducing conditions. […]

AAAs = conditions: apolipoprotein E-deficient murine model; cited from earlier work
[4] = Serum estradiol levels after pellet implantation; format: in vivo; conditions: at 2 to 3 weeks, 21-day slow-release 0.1-mg pellet s.c.; control rats 15.0±2.2
Source text: In other experiments, male rats were randomized to implantation of an estrogen pellet or sham implantation (n=13, each). The former involved the subcutaneous implantation of a 21-day slow-release 0.1-mg 17-β-estradiol pellet (Innovative Research of America, Sarasota, Fla.) in the posterior neck. Sham rats underwent the same implantation procedure without insertion of any pellet. This particular estradiol dose results in serum estradiol levels at 2 to 3 weeks of 44.7±6.1 pg/mL compared with 15.0±2.2 pg/mL in control rats (P<0.05). Rat aortas from both groups were subjected to elastase perfusion 5 days later. The aortas were then removed for study 7 or 14 days after elastase perfusion.
Male Sprague-Dawley rats (190 g to 210 g) were obtained from Charles River Laboratories. Subcutaneous neck implantation of a 21-day slow release 0.1 mg 17-β-estradiol pellet (Innovative Research of America) was performed under general inhalational anesthesia. This particular estradiol dose results in serum estradiol levels at 2 to 3 weeks of 44.7±6.1 pg/mL compared with 15.0±2.2 pg/mL in control rats (p<0.05). Three weeks after pellet implantation, the infrarenal aorta was explanted under general anesthesia. The aorta was briefly rinsed free of blood and debris with cold 1×PBS containing antibiotics, cut into 1-mm rings, and incubated for 48 hours in 1 mL of serum-free DMEM containing antibiotics and IL-1β. […]

**Q.** Which results are given for `C[C@]12CC[C@@H]3c4ccc(O)cc4CC[C@H]3[C@@H]1CC[C@@H]2O` [17-β-estradiol]?
**A.** MMP-2 activity in male RASMCs (MMP-2 [1]): not altered; elastin fragmentation ([2]; estradiol treated male rats' aortas vs sham): less prominent; ED-1-positive cell counts ([2]; male rats receiving estradiol, sham 5.2±0.5, P=0.0006): 1.8±0.3 cells/HPF; MMP-2 activity in the media of whole-aortic explants (MMP-2 [3]; male rats pre-treated with extended-release s.c. pellets, explants stimulated with IL-1β, control 4.35×10^5, P=0.002): 2.0×10^5 O.D./mg protein; decrease in MMP-2 activity in the media of whole-aortic explants (MMP-2 [3]; male rats pre-treated, vs control): 2 fold; MMP-9 activity in male RASMC media (MMP-9): no difference; development of AAAs (AAAs): attenuate the development of AAAs; serum estradiol levels [4]: 44.7 ± 6.1 pg/mL
